# According to article PMC13198257, “An aerosolized dual-action autotaxin inhibitor-PPARγ agonist for the treatment of pulmonary fibrosis” (Cell Reports Medicine, 2026):
# System: lung gene expression
# Assay: RNA sequencing of lung tissue (BLM/EL244 vs BLM)
# Format: in vivo, mouse
# Procedure: RNA quality was assessed using an Agilent TapeStation 4150 with the High Sensitivity […] ScreenTape (Agilent), according to the manufacturer’s protocols. For library preparation, the QuantSeq 3’mRNA-Seq Library Prep Kit (Lexogen) was used according to manufacturer’s instructions. Briefly, 500 ng of RNA from each sample was used for first-strand synthesis, followed by RNA template removal, and second-strand synthesis initiated by random primers. In-line barcodes were introduced at this step, and this was followed by magnetic bead-based purification. The resulting libraries were amplified for 15 cycles and re-purified, with quantity and quality assessed on a Qubit 4 Fluorometer with the Invitrogen Qubit dsDNA HS Assay and an Agilent Tapestation 4150 with the High Sensitivity D1000 assay kit, respectively. The quantified libraries were pooled equimolarly; 50ng of total library mix was used for Adapter Conversion PCR Amplification using the Universal Library Conversion Kit (App-A), Version: V1.0 (MGI Tech Co., Ltd.), according to the manufacturer’s instructions.
# The quantity and quality of the purified adapter conversion PCR (AC-PCR) product were evaluated on a Qubit 4 Fluorometer with the Invitrogen Qubit dsDNA HS Assay and on an Agilent Tapestation 4150 with the High Sensitivity D1000 assay kit, respectively. This was followed by DNA denaturation, Single-Strand Circularisation, Enzymatic Digestion, Enzymatic Digestion Product Cleanup and Quality Control steps on 1 pmol of AC-PCR product, according to the Universal Library Conversion Kit (App-A) User Manual (Version: A3).
# Finally, 60 fmol of ssCirDNA were used for DNB preparation and sequencing on a DNBSEQ-G400 platform at the BSRC Alexander Fleming Genomics Facility, using a G400 App-A FCS SE100 High-throughput Sequencing Set (MGI Tech Co., Ltd.), according to the manufacturer’s instructions.
# Alignment of the FASTQ files was performed against the mouse genome build mm10 using a custom Bash script.[143] Read counting on the 3′ UTRs and differential expression analysis were conducted using the metaseqR2 bioconductor package.[144] Genes corresponding to the following biotypes were excluded: polymorphic_pseudogene, processed_transcript, pseudogene, IG_V_pseudogene, misc_RNA, IG_C_gene, IG_J_gene, IG_D_gene, IG_LV_gene, TR_V_gene, TR_V_pseudogene, TEC, and processed_pseudogene. Gene counts were normalized with DESEQ[145] through metaseqR2. Genes with more than 10 counts in at least 50% of the samples were kept for further processing. For differential expression analysis, the PANDORA algorithm[146] was used to estimate a meta p-value integrating the results from the DESEQ, DESEQ2,[147] edgeR,[148] limma,[149] NBPSeq,[150] and NOISeq[151] algorithms. All additional parameters were set to default values.
# Pathway enrichment analysis was performed for the Gene Ontology Biological process (BP) and Molecular Function (MF) terms through GeneCodis 4.[152] The volcano plots, scatterplots, Venn diagrams, and dot plots were generated using the ggplot2 Bioconductor package.
smiles,measurement,setting,value
"O=C1NC(=O)C(Cc2ccc(OCCC3CCN(C(=O)OCc4cc(Cl)cc(Cl)c4)CC3)cc2)S1 (stereo not drawn) [EL244, 3,5-dichlorobenzyl 4-(2-(4-((2,4-dioxothiazolidin-5-yl)methyl)phenoxy)ethyl)piperidine-1-carboxylate]",Rbm24 nFC,"BLM/EL244 vs BLM, lung tissue",2.29
same,Rdh12 log2 nFC,"BLM/EL244 vs BLM, lung tissue",1.74
same,Rdh12 nFC,"BLM/EL244 vs BLM, lung tissue",3.34
same,Retnlg log2 nFC,"BLM/EL244 vs BLM, lung tissue",1.46
same,Retnlg nFC,"BLM/EL244 vs BLM, lung tissue",2.74
same,Ryr2 log2 nFC,"BLM/EL244 vs BLM, lung tissue",2.14
same,Ryr2 nFC,"BLM/EL244 vs BLM, lung tissue",4.39
same,S1pr5 log2 nFC,"BLM/EL244 vs BLM, lung tissue",1.64
same,S1pr5 nFC,"BLM/EL244 vs BLM, lung tissue",3.12
same,S100a8 log2 nFC,"BLM/EL244 vs BLM, lung tissue",1.52
same,S100a8 nFC,"BLM/EL244 vs BLM, lung tissue",2.86
same,S100a9 log2 nFC,"BLM/EL244 vs BLM, lung tissue",2.11
same,S100a9 nFC,"BLM/EL244 vs BLM, lung tissue",4.32
same,Scel log2 nFC,"BLM/EL244 vs BLM, lung tissue",1.31
same,Scel nFC,"BLM/EL244 vs BLM, lung tissue",2.47
same,Shank3 log2 nFC,"BLM/EL244 vs BLM, lung tissue",1.61
same,Shank3 nFC,"BLM/EL244 vs BLM, lung tissue",3.05
same,Slc38a4 log2 nFC,"BLM/EL244 vs BLM, lung tissue",1.12
same,Slc38a4 nFC,"BLM/EL244 vs BLM, lung tissue",2.17
same,Sln log2 nFC,"BLM/EL244 vs BLM, lung tissue",2.01
same,Sln nFC,"BLM/EL244 vs BLM, lung tissue",4.02
same,Smad6 log2 nFC,"BLM/EL244 vs BLM, lung tissue",1.18
same,Smad6 nFC,"BLM/EL244 vs BLM, lung tissue",2.26
same,Smpx log2 nFC,"BLM/EL244 vs BLM, lung tissue",2.34
same,Smpx nFC,"BLM/EL244 vs BLM, lung tissue",5.08
same,Smyd1 log2 nFC,"BLM/EL244 vs BLM, lung tissue",1.73
same,Smyd1 nFC,"BLM/EL244 vs BLM, lung tissue",3.32
same,Snhg11 log2 nFC,"BLM/EL244 vs BLM, lung tissue",1.40
same,Snhg11 nFC,"BLM/EL244 vs BLM, lung tissue",2.64
same,Snx21 log2 nFC,"BLM/EL244 vs BLM, lung tissue",1.15
same,Snx21 nFC,"BLM/EL244 vs BLM, lung tissue",2.21
same,Sox18 log2 nFC,"BLM/EL244 vs BLM, lung tissue",1.91
same,Sox18 nFC,"BLM/EL244 vs BLM, lung tissue",3.76
same,Spink5 log2 nFC,"BLM/EL244 vs BLM, lung tissue",1.36
same,Spink5 nFC,"BLM/EL244 vs BLM, lung tissue",2.57
same,Tbata log2 nFC,"BLM/EL244 vs BLM, lung tissue",1.72
same,Tbata nFC,"BLM/EL244 vs BLM, lung tissue",3.30
same,Tcap log2 nFC,"BLM/EL244 vs BLM, lung tissue",1.73
same,Tcap nFC,"BLM/EL244 vs BLM, lung tissue",3.32
same,Tex11 log2 nFC,"BLM/EL244 vs BLM, lung tissue",1.83
same,Tex11 nFC,"BLM/EL244 vs BLM, lung tissue",3.55
same,Tmem182 log2 nFC,"BLM/EL244 vs BLM, lung tissue",2.26
same,Tmem182 nFC,"BLM/EL244 vs BLM, lung tissue",4.78
same,Tmem132d log2 nFC,"BLM/EL244 vs BLM, lung tissue",2.38
same,Tmem132d nFC,"BLM/EL244 vs BLM, lung tissue",5.19
same,Tnnc1 log2 nFC,"BLM/EL244 vs BLM, lung tissue",2.18
same,Tnnc1 nFC,"BLM/EL244 vs BLM, lung tissue",4.53
same,Tnni3 log2 nFC,"BLM/EL244 vs BLM, lung tissue",2.31
same,Tnni3 nFC,"BLM/EL244 vs BLM, lung tissue",4.95
same,Tnnt2 log2 nFC,"BLM/EL244 vs BLM, lung tissue",1.77
same,Tnnt2 nFC,"BLM/EL244 vs BLM, lung tissue",3.42
same,Ttn log2 nFC,"BLM/EL244 vs BLM, lung tissue",2.53
same,Ttn nFC,"BLM/EL244 vs BLM, lung tissue",5.78
same,Upk3b log2 nFC,"BLM/EL244 vs BLM, lung tissue",1.53
same,Upk3b nFC,"BLM/EL244 vs BLM, lung tissue",2.88
same,Xndc1 log2 nFC,"BLM/EL244 vs BLM, lung tissue",1.14
same,Xndc1 nFC,"BLM/EL244 vs BLM, lung tissue",2.21
same,Zbtb16 log2 nFC,"BLM/EL244 vs BLM, lung tissue",1.33
same,Zbtb16 nFC,"BLM/EL244 vs BLM, lung tissue",2.51
same,Zmynd10 log2 nFC,"BLM/EL244 vs BLM, lung tissue",1.28
same,Zmynd10 nFC,"BLM/EL244 vs BLM, lung tissue",2.44
same,1810010H24Rik log2 nFC BLM/EL244 vs BLM,"DEG 1810010H24Rik, nFC: normalised fold change",0.90
same,1810020O05Rik log2 nFC BLM/EL244 vs BLM,"DEG 1810020O05Rik, nFC: normalised fold change",1.58
same,2410004I01Rik log2 nFC BLM/EL244 vs BLM,"DEG 2410004I01Rik, nFC: normalised fold change",1.80
same,9330159F19Rik log2 nFC BLM/EL244 vs BLM,"DEG 9330159F19Rik, nFC: normalised fold change",1.78
same,9530026P05Rik log2 nFC BLM/EL244 vs BLM,"DEG 9530026P05Rik, nFC: normalised fold change",3.17
same,A3galt2 log2 nFC BLM/EL244 vs BLM,"DEG A3galt2, nFC: normalised fold change",2.32
same,log2 nFC BLM/EL244 vs BLM,DEG AA467197,-1.39
same,Abca8a log2 nFC BLM/EL244 vs BLM,"DEG Abca8a, nFC: normalised fold change",0.75
same,Abi3bp log2 nFC BLM/EL244 vs BLM,"DEG Abi3bp, nFC: normalised fold change",1.00
same,Acaa1b log2 nFC BLM/EL244 vs BLM,"DEG Acaa1b, nFC: normalised fold change",1.43
same,Acbd4 log2 nFC BLM/EL244 vs BLM,"DEG Acbd4, nFC: normalised fold change",0.86
same,Acot1 log2 nFC BLM/EL244 vs BLM,"DEG Acot1, nFC: normalised fold change",1.08
same,Acoxl log2 nFC BLM/EL244 vs BLM,"DEG Acoxl, nFC: normalised fold change",1.23
same,Actc1 log2 nFC BLM/EL244 vs BLM,"DEG Actc1, nFC: normalised fold change",1.28
same,Adam3 log2 nFC BLM/EL244 vs BLM,"DEG Adam3, nFC: normalised fold change",1.67
same,log2 nFC BLM/EL244 vs BLM,DEG Adam12,-1.57
same,log2 nFC BLM/EL244 vs BLM,DEG Adamts12,-1.47
same,Adh7 log2 nFC BLM/EL244 vs BLM,"DEG Adh7, nFC: normalised fold change",1.02
same,Alas2 log2 nFC BLM/EL244 vs BLM,"DEG Alas2, nFC: normalised fold change",1.58
same,Aldh1a1 log2 nFC BLM/EL244 vs BLM,"DEG Aldh1a1, nFC: normalised fold change",0.78
same,log2 nFC BLM/EL244 vs BLM,DEG Ankrd37,-1.50
same,Ankrd44 log2 nFC BLM/EL244 vs BLM,"DEG Ankrd44, nFC: normalised fold change",0.84
same,Ankrd63 log2 nFC BLM/EL244 vs BLM,"DEG Ankrd63, nFC: normalised fold change",1.34
same,Aox3 log2 nFC BLM/EL244 vs BLM,"DEG Aox3, nFC: normalised fold change",1.07
same,Aqp9 log2 nFC BLM/EL244 vs BLM,"DEG Aqp9, nFC: normalised fold change",1.66
same,Ar log2 nFC BLM/EL244 vs BLM,"DEG Ar, nFC: normalised fold change",1.04
same,Arhgap28 log2 nFC BLM/EL244 vs BLM,"DEG Arhgap28, nFC: normalised fold change",1.14
same,Arhgef38 log2 nFC BLM/EL244 vs BLM,"DEG Arhgef38, nFC: normalised fold change",0.87
same,Arl4a log2 nFC BLM/EL244 vs BLM,"DEG Arl4a, nFC: normalised fold change",0.70
same,log2 nFC BLM/EL244 vs BLM,DEG Armcx4,-1.32
same,Arrdc2 log2 nFC BLM/EL244 vs BLM,"DEG Arrdc2, nFC: normalised fold change",1.24
same,Asgr1 log2 nFC BLM/EL244 vs BLM,"DEG Asgr1, nFC: normalised fold change",1.80
same,Atp2a3 log2 nFC BLM/EL244 vs BLM,"DEG Atp2a3, nFC: normalised fold change",0.83
same,Atp6v1c2 log2 nFC BLM/EL244 vs BLM,"DEG Atp6v1c2, nFC: normalised fold change",1.03
same,Baiap3 log2 nFC BLM/EL244 vs BLM,"DEG Baiap3, nFC: normalised fold change",1.24
same,Bbof1 log2 nFC BLM/EL244 vs BLM,"DEG Bbof1, nFC: normalised fold change",1.11
same,log2 nFC BLM/EL244 vs BLM,DEG Bcl2a1d,-1.29
same,Bex2 log2 nFC BLM/EL244 vs BLM,"DEG Bex2, nFC: normalised fold change",1.46
same,Bmp6 log2 nFC BLM/EL244 vs BLM,"DEG Bmp6, nFC: normalised fold change",1.07
same,Bpifa1 log2 nFC BLM/EL244 vs BLM,"DEG Bpifa1, nFC: normalised fold change",1.12
same,log2 nFC BLM/EL244 vs BLM,DEG C1qa,-1.44
same,log2 nFC BLM/EL244 vs BLM,DEG C1qb,-1.51
same,log2 nFC BLM/EL244 vs BLM,DEG C1qc,-1.56
same,log2 nFC BLM/EL244 vs BLM,DEG C1qtnf6,-1.38
same,log2 nFC BLM/EL244 vs BLM,DEG C3ar1,-1.58
same,C130080G10Rik log2 nFC BLM/EL244 vs BLM,"DEG C130080G10Rik, nFC: normalised fold change",3.58
same,Car3 log2 nFC BLM/EL244 vs BLM,"DEG Car3, nFC: normalised fold change",1.57
same,Casq2 log2 nFC BLM/EL244 vs BLM,"DEG Casq2, nFC: normalised fold change",2.36
same,Cbr2 log2 nFC BLM/EL244 vs BLM,"DEG Cbr2, nFC: normalised fold change",0.91
same,Ccdc153 log2 nFC BLM/EL244 vs BLM,"DEG Ccdc153, nFC: normalised fold change",0.79
same,Ccdc171 log2 nFC BLM/EL244 vs BLM,"DEG Ccdc171, nFC: normalised fold change",1.04
same,log2 nFC BLM/EL244 vs BLM,DEG Ccl2,-1.43
same,log2 nFC BLM/EL244 vs BLM,DEG Ccl8,-1.54
